Test results as given in paper PMC11571207, “Stereorandomized Oncocins with Preserved Ribosome Binding and Antibacterial Activity” (Journal of Medicinal Chemistry, 2024).
Where two headings read alike, the source gives them in different places. No end group written: not given here.

Tests used:
A. baumannii ATCC19606 = test: microbe, parasite or virus in culture; settings: for MIC A. baumannii ATCC19606: supplement CSV
Summary of the method: (§1)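 Read-out was visible growth after MTT addition, the MIC being the lowest inhibitory peptide concentration. Bacteria grown to log phase in LB were exposed in MH medium to peptide from 64 μg/mL in twofold dilutions for 15-18h at 37°C.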

E. coli W3110 = test: microbe, parasite or virus in culture; settings: for MIC E. coli W3110: supplement CSV
Summary of the method: as §1

K. pneumoniae NCTC 418 = test: microbe, parasite or virus in culture; settings: for MIC K. pneumoniae NCTC418: supplement CSV
Summary of the method: as §1

P. aeruginosa PAO1 = test: microbe, parasite or virus in culture; settings: for MIC P. aeruginosa PAO1: supplement CSV
Summary of the method: as §1

S. aureus COL (MRSA) = test: microbe, parasite or virus in culture; settings: for MIC S. aureus COL (MRSA): supplement CSV
Summary of the method: as §1

E. cloacae = test: microbe, parasite or virus in culture; settings: for MIC E. cloacae: supplement CSV
Summary of the method: (§2)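 Minimal inhibitory concentrations come from broth microdilution in MH medium, with a top peptide concentration of 64 μg/mL halved serially.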

K. pneumoniae OXA-48 = test: microbe, parasite or virus in culture; settings: for MIC K. pneumoniae OXA-48: supplement CSV
Summary of the method: as §2

[1] = tested on: P. aeruginosa PA14 2P4 (pmrB); test: microbe, parasite or virus in culture; settings: for MIC P. aeruginosa PA14 2P4: supplement CSV
Summary of the method: as §2

P. aeruginosa PA14 = test: microbe, parasite or virus in culture; settings: for MIC P. aeruginosa PA14: supplement CSV
Summary of the method: as §2

P. aeruginosa ZEM-1A = test: microbe, parasite or virus in culture
Summary of the method: as §2

P. aeruginosa ZEM9A = test: microbe, parasite or virus in culture; settings: for MIC P. aeruginosa ZEM9A: supplement CSV
Summary of the method: as §2

[2] = tested on: P. aeruginosa PA14 4.18 (pmrB); settings: for MIC P. aeruginosa PA14 4.18: supplement CSV
human red blood cells = test: Hemolysis assay, minimum hemolytic concentration
[3] = polymyxin B resistant strain, 12.5% MHB pH 7.4, 16–20 h at 37 °C
[4] = polymyxin B resistant strain, full MHB pH 7.4, 16–20 h at 37 °C

VDKPPYLPRPRPPRRIYNR [sr5Cterm-Onc] (VDKPPYLPRPRPPRRIYNR-NH2; also: residues 15-19 stereorandomized (1:1 L/D mixture))
32 µg/mL: MIC A. baumannii, Full MHB (A. baumannii ATCC19606; A. baumannii ATCC19606, full Müller–Hinton medium, 16–20 h at 37 °C) | MIC A. baumannii ATCC19606 (A. baumannii ATCC19606; full MH pH 7.4) | MIC E. cloacae, full MHB (E. cloacae; full MHB pH 7.4, 16–20 h at 37 °C) | MIC E. cloacae (E. cloacae; full MH pH 7.4) | MIC K. pneumoniae OXA-48, full MHB (K. pneumoniae OXA-48; carbapenem-resistant, full MHB pH 7.4, 16–20 h at 37 °C) | MIC K. pneumoniae OXA-48 (K. pneumoniae OXA-48; full MH pH 7.4)
4 to 8 µg/mL: MIC P. aeruginosa ZEM-1A, 12.5% MHB (P. aeruginosa ZEM-1A; clinical isolate, 12.5% MHB pH 7.4, 16–20 h at 37 °C, cells marked c: single measurement (in duplicates)) | MIC P. aeruginosa ZEM-1A (P. aeruginosa ZEM-1A; supplement CSV, 12.5% MH pH 7.4)
64 µg/mL: MIC P. aeruginosa, Full MHB (P. aeruginosa PAO1; P. aeruginosa PAO1, full Müller–Hinton medium, 16–20 h at 37 °C) | MIC P. aeruginosa PAO1 (P. aeruginosa PAO1; full MH pH 7.4) | MIC P. aeruginosa ZEM-1A, full MHB (P. aeruginosa ZEM-1A; clinical isolate, full MHB pH 7.4, 16–20 h at 37 °C, cells marked c: single measurement (in duplicates)) | MIC P. aeruginosa PA14 4.18 (pmrB), full MHB [2, 4] | MIC P. aeruginosa PA14 4.18 ([2]; full MH pH 7.4)
>16 µg/mL: MIC S. aureus COL (MRSA) (S. aureus COL (MRSA); 12.5% MH pH 7.4)
4 µg/mL: MIC A. baumannii, 12.5% MHB (A. baumannii ATCC19606; A. baumannii ATCC19606, 12.5% Müller–Hinton medium, 16–20 h at 37 °C) | MIC A. baumannii ATCC19606 (A. baumannii ATCC19606; 12.5% MH pH 7.4) | MIC E. coli, Full MHB (E. coli W3110; E. coli W3110, full Müller–Hinton medium, 16–20 h at 37 °C, broth microdilution) | MIC E. coli W3110 (E. coli W3110; full MH pH 7.4) | MIC K. pneumoniae OXA-48, 12.5% MHB (K. pneumoniae OXA-48; carbapenem-resistant, 12.5% MHB pH 7.4, 16–20 h at 37 °C) | MIC K. pneumoniae OXA-48 (K. pneumoniae OXA-48; 12.5% MH pH 7.4)
2 / 2 μg/mL: MIC K. pneumoniae, 12.5% MHB (K. pneumoniae NCTC 418; K. pneumoniae NCTC 418, 12.5% Müller–Hinton medium, 16–20 h at 37 °C) | MIC K. pneumoniae, Full MHB (K. pneumoniae NCTC 418; K. pneumoniae NCTC 418, full Müller–Hinton medium, 16–20 h at 37 °C)
> 16 µg/mL: MIC S. aureus, 12.5% MHB (S. aureus COL (MRSA); S. aureus COL (MRSA), 12.5% Müller–Hinton medium, 16–20 h at 37 °C)
2 µg/mL: MIC E. coli, 12.5% MHB (E. coli W3110; E. coli W3110, 12.5% Müller–Hinton medium, 16–20 h at 37 °C, broth microdilution) | MIC E. coli W3110 (E. coli W3110; 12.5% MH pH 7.4) | MIC K. pneumoniae NCTC418 (K. pneumoniae NCTC 418; 12.5% MH pH 7.4) | MIC K. pneumoniae NCTC418 (K. pneumoniae NCTC 418; full MH pH 7.4) | MIC P. aeruginosa PA14 2P4 (pmrB), 12.5% MHB [1, 3] | MIC P. aeruginosa PA14 2P4 ([1]; 12.5% MH pH 7.4)
>64 µg/mL: MIC S. aureus COL (MRSA) (S. aureus COL (MRSA); full MH pH 7.4) | MIC P. aeruginosa PA14 2P4 ([1]; full MH pH 7.4) | MIC P. aeruginosa PA14 (P. aeruginosa PA14; full MH pH 7.4) | MIC P. aeruginosa ZEM9A (P. aeruginosa ZEM9A; full MH pH 7.4)
8 µg/mL: MIC P. aeruginosa, 12.5% MHB (P. aeruginosa PAO1; P. aeruginosa PAO1, 12.5% Müller–Hinton medium, 16–20 h at 37 °C) | MIC P. aeruginosa PAO1 (P. aeruginosa PAO1; 12.5% MH pH 7.4) | MIC P. aeruginosa PA14, 12.5% MHB (P. aeruginosa PA14; 12.5% MHB pH 7.4, 16–20 h at 37 °C, two different duplicate MIC determinations) | MIC P. aeruginosa PA14 (P. aeruginosa PA14; 12.5% MH pH 7.4) | MIC P. aeruginosa ZEM9A, 12.5% MHB (P. aeruginosa ZEM9A; clinical isolate, 12.5% MHB pH 7.4, 16–20 h at 37 °C) | MIC P. aeruginosa ZEM9A (P. aeruginosa ZEM9A; 12.5% MH pH 7.4) | MIC P. aeruginosa PA14 4.18 (pmrB), 12.5% MHB [2, 3] | MIC P. aeruginosa PA14 4.18 ([2]; 12.5% MH pH 7.4)
1 µg/mL: MIC E. cloacae, 12.5% MHB (E. cloacae; 12.5% MHB pH 7.4, 16–20 h at 37 °C) | MIC E. cloacae (E. cloacae; 12.5% MH pH 7.4)
>1000 µg/mL: Haemolysis on hRBC, MHC (human red blood cells; 2.5% human red blood cells (final) in 10 mM phosphate, 150 mM NaCl, pH 7.4, 25 °C, 4 h, visual inspection) | MHC human red blood cells (human red blood cells; supplement CSV)
> 64 µg/mL: MIC S. aureus, Full MHB (S. aureus COL (MRSA); S. aureus COL (MRSA), full Müller–Hinton medium, 16–20 h at 37 °C) | MIC P. aeruginosa PA14 2P4 (pmrB), full MHB [1, 4] | MIC P. aeruginosa PA14, full MHB (P. aeruginosa PA14; full MHB pH 7.4, 16–20 h at 37 °C, two different duplicate MIC determinations) | MIC P. aeruginosa ZEM9A, full MHB (P. aeruginosa ZEM9A; clinical isolate, full MHB pH 7.4, 16–20 h at 37 °C)
